Source: patent EP0731088B1, “Retroviral protease inhibitors” (MONSANTO COMPANY, priority 1990, dated 1992)

Legend:
HIV protease = target: T1, HIV protease (Human immunodeficiency virus type 1 group M subtype B, UniProt P04585); test: HIV protease enzyme assay (fluorogenic substrate 2-aminobenzoyl-Ile-Nle-Phe(p-NO2)-Gln-ArgNH2); assay type: biochemical; details: substrate 80 µM, enzyme 12.3 nanomolar, pH 6.4, ambient temperature
T1 construct: HIV protease is diluted in the assay buffer to a final enzyme concentration of 12.3 nanomolar, based on a molecular weight of 10,780
Excerpt: The compounds of the present invention are effective HIV protease inhibitors. Utilizing an enzyme assay as described below, the compounds set forth in the examples herein disclosed inhibited the HIV enzyme. The preferred compounds of the present invention and their calculated IC50 (inhibiting concentration 50%, i.e., the concentration at which the inhibitor compound reduces enzyme activity by 50%) values are shown in Table 18. The enzyme method is described below. The substrate is 2-aminobenzoyl-Ile-Nle-Phe(p-NO2)-Gln-ArgNH2. The positive control is MVT-101 (Miller, M. et al, Science, 246, 1149 (1989)] The assay conditions are as follows: Assay buffer: • 20 mM sodium phosphate, pH 6.4 • 20% glycerol • 1 mM EDTA • 1 mM DTT • 0.1% CHAPS
The above described substrate is dissolved in DMSO, then diluted 10 fold in assay buffer. Final substrate concentration in the assay is 80 µM.
HIV protease is diluted in the assay buffer to a final enzyme concentration of 12.3 nanomolar, based on a molecular weight of 10,780.
The final concentration of DMSO is 14% and the final concentration of glycerol is 18%. […] The increase in fluorescence is monitored at 4 time points (0, 8, 16 and 24 minutes) at ambient temperature. […]

HIV-1 = test: CEM cell assay: HIV inhibition in acutely infected cells, tetrazolium (MTT) based colorimetric assay; details: Table 19; test concentration not given; CEM cells infected with HIV-1, 7 days
Experimental: The effectiveness of the compounds listed in Table 19 were determined in the above-described enzyme assay and in a CEM cell assay.
Methods 20, 309-321 (1988).

SMILES | IC50 (HIV protease) [nM] | Inhibition (HIV-1) [%]
CCCCC(=O)N(CC1CCCCC1)C[C@@H](O)[C@H](Cc1ccccc1)NC(=O)[C@H](CC(N)=O)NC(=O)OCc1ccccc1 (relative stereo) [Compound 2, Butanediamide, N^1-[3-[[butylcarbonyl](cyclohexylmethyl)amino]-2-hydroxy-1-(phenylmethyl)propyl]-2-[(phenylmethyloxy)carbonyl)amino]-, [1S-[1R*(2R*),2S*]]] | 696 | –
CC(C)CCN(C[C@@H](O)[C@H](Cc1ccccc1)NC(=O)[C@H](CC(N)=O)NC(=O)c1ccc2ccccc2n1)C(=O)CC(C)(C)C (relative stereo) [Compound 1, Butanediamide, N^1-[3-[[[(2,2-dimethyl)propyl]carbonyl](3-methylbutyl)amino]-2-hydroxy-1-(phenylmethyl)propyl]-2-[(2-quinolinylcarbonyl)amino]-, [1S-[1R*(2R*),2S*]]] | 21 | 100
